The source of these data is patent US20150141411A1, “SUBSTITUTED 3,4-DIHYDRO-2H-PYRIDO[1,2-A]PYRAZINE-1,6-DIONE DERIVATIVES USEFUL FOR THE TREATMENT OF (INTER ALIA) ALZHEIMER'S DISEASE” (Janssen Pharmaceuticals, Inc., priority 2012, published 2015).

Assay [1] deals with T1, γ-secretase (Homo sapiens, UniProt P49768).
T1 construct: endogenous in cells; host or cells: SKNBE2 human neuroblastoma cells (carrying hAPP 695 wild type as substrate)
Nature of the assay: Screening for γ-secretase-modulating activity: Aβ42 in supernatant of SKNBE2 cells carrying hAPP 695 wild type (Alphalisa). The following applies: SKNBE2 human neuroblastoma cells carrying hAPP 695 wild type, overnight incubation, Aβ42 in cell supernatant. The assay is classed as cell-based. Summed up:
(§1)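 SKNBE2 neuroblastoma cells expressing wild-type hAPP 695 plated at 10^4 cells/well in Ultraculture with test compound, incubated overnight at 37° C. Aβ42 (C-terminal/N-terminal antibody pair) and Aβtotal (N-terminal/4G8 pair) in supernatant quantified by AlphaLISA. IC50 from 4-parameter fit of percent of compound-free control.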
(Bead proximity is the source of the signal in Alpha formats.)

A further assay has as its system Aβ42. Kind of assay: In vivo efficacy: brain soluble Aβ42 in non-transgenic rodents (MSD electrochemiluminescence multiplex). More on the design: species or system mouse. The following applies: dose 30 mg/kg oral dosing, brain soluble fraction, animals sacrificed after 4 h; for response vs control in vivo at 30 mg/kg: Mus musculus, po, 4 h, untreated animals (Ctrl) set at 100, read-out: Aβ42 (% vs Ctrl)_Mean. From the text: To determine whether acute administration of an Aβ42 lowering agent would reduce Aβ42 levels in vivo, non-transgenic rodents, e.g. mice or rats were used. Animals treated with the Aβ42 lowering agent were examined and compared to those untreated or treated with vehicle and brain levels of soluble Aβ42, Aβ40, Aβ38, and Aβ37 were quantitated by Meso Scale Discovery's (MSD) electrochemiluminescence detection technology. Treatment periods varied from hours (h) to days and were adjusted based on the results of the Aβ42 lowering once a time course of onset of effect could be established.
A typical protocol for measuring Aβ42 lowering in vivo is shown but it is only one of many variations that could be used to optimize the levels of detectable Aβ. For example, Aβ42 lowering compounds were formulated in 20% of Captisol® (a sulfo-butyl ether of β-cyclodextrin) in water or 20% hydroxypropyl βcyclodextrin. The Aβ42 lowering agents were administered as a single oral dose or by any acceptable route of administration to overnight fasted animals. After 4 h, the animals were sacrificed and Aβ42 levels were analysed.
Blood was collected by decapitation and exsanguinations in EDTA-treated collection tubes. Blood was centrifuged at 1900 g for 10 minutes (min) at 4° C. and the plasma recovered and flash frozen for later analysis. The brain was removed from the cranium and hindbrain. The cerebellum was removed and the left and right hemisphere were separated. The left hemisphere was stored at −18° C. for quantitative analysis of test compound levels. The right hemisphere was rinsed with phosphate-buffered saline (PBS) buffer and immediately frozen on dry ice and stored at −80° C. until homogenization for biochemical assays.
Mouse brains from non-transgenic animals were resuspended in 8 volumes of 0.4% DEA (diethylamine)/50 mM NaCl containing protease inhibitors (Roche-11873580001 or 04693159001) per gram of tissue, e.g. for 0.158 g brain, add 1.264 ml of 0.4% DEA. All samples were homogenized in the FastPrep-24 system (MP Biomedicals) using lysing matrix D (MPBio #6913-100) at 6 m/s for 20 seconds. Homogenates were centrifuged at 20800×g for 5 min and supernatants collected. Supernatants were centrifuged at 221.300×g for 50 min. The resulting high speed supernatants were then transferred to fresh eppendorf tubes. Nine parts of supernatant were neutralized with 1 part 0.5 M Tris-HCl pH 6.8 and used to quantify Aβ.
To quantify the amount of Aβ42, Aβ40, Aβ38, and Aβ37 in the soluble fraction of the brain homogenates, simultaneous specific detection of Aβ42, Aβ40, Aβ38, and Aβ37 was performed using MSD's electro-chemiluminescence multiplex detection technology. In this assay purified monoclonal antibodies specific for Abeta37 (JRD/Aβ37/3), Abeta38 (J&JPRD/Aβ38/5), Abeta40 (JRF/cAβ40/28), and Abeta42 (JRF/cAβ42/26) were coated on MSD 4-plex plates. Briefly, the standards (a dilution of synthetic Aβ42, Aβ40, Aβ38, and Aβ37) were prepared in 1.5 ml Eppendorf tube in Ultraculture, with final concentrations ranging from 10000 to 0.3 pg/m. The samples and standards were co-incubated with Sulfo-tag labelled JRF/rAβ/2 antibody to the N-terminus of Aβ as detector antibody. 50 μl of conjugate/sample or conjugate/standards mixtures were then added to the antibody-coated plate. The plate was allowed to incubate overnight at 4° C. in order to allow formation of the antibody-amyloid complex. Following this incubation and subsequent wash steps the assay was finished by adding read buffer according to the manufacturer's instructions (Meso Scale Discovery, Gaitherburg, Md.).
The SULFO-TAG emits light upon electrochemical stimulation initiated at the electrode. MSD Sector instrument SI6000 was used for signal read-out.
In this model a Aβ42 lowering compared to untreated animals would be advantageous, in particular a Aβ42 lowering with at least 10%, more in particular a Aβ42 lowering with at least 20%. […]

Assay [2] addresses T1, γ-secretase. Kind of assay: Screening for γ-secretase-modulating activity: Aβtotal in supernatant of SKNBE2 cells carrying hAPP 695 wild type (Alphalisa). The following applies: SKNBE2 human neuroblastoma cells carrying hAPP 695 wild type, overnight incubation, Aβtotal in cell supernatant. The assay is classed as cell-based. The essentials:
as §1

Structures are written as SMILES. Bounds are passed on as bounds.

Compound `Cc1cn(-c2ccc3n(c2=O)CC(C)N(C(C)c2cn(C)c4cc(F)c(Cl)cc24)C3=O)cn1` (single isomer, unassigned) [compound 189] returned an IC50 against γ-secretase [1] of 0.22 µM. Also, the response vs control in vivo at 30 mg/kg in the assay on Aβ42 was found to be 116%.
As for `Cc1cn(-c2ccc3n(c2=O)CC(C)N(C(C)c2cc(C(F)(F)F)cc(C(F)(F)F)c2)C3=O)cn1.Cl` (single isomer, unassigned) [compound 112], the IC50 against γ-secretase [2] was > 10 µM; against γ-secretase [1] it was 0.07 µM. In addition, the “Aβ42 (% vs Ctrl)_Mean” value in the assay on Aβ42 (untreated animals (Ctrl) set at 100, 30 mg/kg) is 55 % vs Ctrl.
For `Cc1cn(-c2ccc3n(c2=O)C[C@@H](C)N(Cc2ccc(F)c(F)c2)C3=O)cn1` [compound 133], the IC50 was > 10 µM against γ-secretase [2] and 1.51 µM against γ-secretase [1]. Moreover, in the assay on Aβ42, the response vs control in vivo at 30 mg/kg was determined as 87%.
In the case of `Cc1cn(-c2ccc3n(c2=O)C[C@@H](C)N(Cc2cc(OC(C)C)nc(C(F)(F)F)c2)C3=O)cn1` [compound 128], the results for the half-inhibitory concentration (IC50) on γ-secretase [2] and at γ-secretase [1] were > 10 µM and 0.09 µM, respectively. Further, the response vs control in vivo at 30 mg/kg in the assay with Aβ42 is 60%.
On to `Cc1cn(-c2ccc3n(c2=O)C[C@@H](C)N(Cc2ccc(Cl)c(C(F)(F)F)c2)C3=O)cn1` [compound 62], for which the values for the IC50 at γ-secretase [2] and at γ-secretase [1] were > 10 µM and 0.13 µM, respectively.
On to `Cc1cn(-c2ccc3n(c2=O)C[C@@H](C)N(CCc2cc(C(F)(F)F)cc(C(F)(F)F)c2)C3=O)cn1` [compound 50], for which the IC50 against γ-secretase [2] is > 10 µM; against γ-secretase [1], 0.04 µM. Further, in the assay on Aβ42, the response vs control in vivo at 30 mg/kg came out at 99%.
For `Cc1cn(-c2ccc3n(c2=O)CC(C)N(C(C)c2cn(C(C)C)c4cc(F)c(Cl)cc24)C3=O)cn1` (single isomer, unassigned) [compound 194], in that order: 1.55 µM, 0.01 µM and 39%.
For `C[C@@H]1Cn2c(ccc(-n3cnc(Cl)c3)c2=O)C(=O)N1Cc1cc(C(F)(F)F)cc(C(F)(F)F)c1` [compound 118], in that order: > 10 µM, 0.19 µM and 92%.
In the case of `CCC(c1cc(OC)cc(C(F)(F)F)c1)N1C(=O)c2ccc(-n3cnc(C)c3)c(=O)n2C[C@H]1C` (single isomer, unassigned) [compound 141], the IC50 against γ-secretase [2] is > 10 µM; against γ-secretase [1] it was 0.11 µM. Further, the response vs control in vivo at 30 mg/kg in the assay with Aβ42 stood at 85%.
On to `Cc1cn(-c2ccc3n(c2=O)CCN(C(C)c2cccc(Cl)c2Cl)C3=O)cn1` (single isomer, unassigned) [10a], for which the IC50 is > 10 µM at γ-secretase [2] and 0.14 µM at γ-secretase [1].
For `Cc1cn(-c2cc(F)c3n(c2=O)C[C@@H](C)N(Cc2cc(C(F)(F)F)cc(C(F)(F)F)c2)C3=O)cn1` [compound 158], the IC50 against γ-secretase [2] was > 10 µM; against γ-secretase [1] it was 0.46 µM. In addition, the response vs control in vivo at 30 mg/kg with Aβ42 was determined as 97%.
For `Cc1cn(-c2ccc3n(c2=O)CCN(C(C)c2cn(C)c4cc(F)c(Cl)cc24)C3=O)cn1` (single isomer, unassigned) [compound 185], in that order: 5.89 µM, 0.02 µM and 68%.
For `Cc1cn(-c2ccc3n(c2=O)C[C@@H](C)N(Cc2cc(CC4CC4)cc(C(F)(F)F)c2)C3=O)cn1` [compound 110], in that order: > 10 µM, 0.04 µM and 88%.
For `Cc1cn(-c2ccc3n(c2=O)CCN(Cc2ccc(Cl)c(C(F)(F)F)c2)C3=O)cn1` [compound 65], the IC50 is > 10 µM against γ-secretase [2] and 0.37 µM against γ-secretase [1].
For `Cc1cn(-c2ccc3n(c2=O)C[C@@H](C)N(Cc2ccc(Cl)c(Cl)c2)C3=O)cn1` [compound 2], in that order: > 10 µM and 0.17 µM.
For `Cc1cn(-c2ccc3n(c2=O)CCN(Cc2ccccc2C)C3=O)cn1` [compound 22], in that order: > 10 µM and 2.57 µM.
For the compound `Cc1cn(-c2ccc3n(c2=O)C[C@@H](C)N(Cc2c[nH]c4cc(F)c(Cl)cc24)C3=O)cn1` [compound 195], the IC50 on γ-secretase [2] came out at 6.46 µM; at γ-secretase [1], 0.03 µM. The response vs control in vivo at 30 mg/kg in the assay on Aβ42 stood at 105%.
Take `Cc1cc(CN2C(=O)c3ccc(-n4cnc(C)c4)c(=O)n3C[C@H]2C)cc(C(F)(F)F)c1` [compound 59]: the results for the IC50 against γ-secretase [2] and on γ-secretase [1] were > 10 µM and 0.18 µM, respectively.
On to `Cc1cn(-c2ccc3n(c2=O)CCN(Cc2cccc(-c4ccccc4)c2)C3=O)cn1` [compound 5], for which the IC50 against γ-secretase [2] was > 10 µM; against γ-secretase [1], 0.08 µM.
For `Cc1cn(-c2ccc3n(c2=O)CC(C)N(Cc2cc(C(F)(F)F)cc(C(F)(F)F)c2)C3=O)cn1` (stereo not shown) [compound 3], the IC50 at γ-secretase [2] was > 10 µM; at γ-secretase [1] it was 0.1 µM. Moreover, in the assay with Aβ42, the response vs control in vivo at 30 mg/kg is 51%.
For the compound `Cc1cn(-c2ccc3n(c2=O)C[C@@H](C)N(Cc2cc(CC(F)(F)F)cc(C(F)(F)F)c2)C3=O)cn1` [compound 134], the IC50 against γ-secretase [2] was > 10 µM; against γ-secretase [1], 0.1 µM. Also, in the assay on Aβ42, the response vs control in vivo at 30 mg/kg was 97%.
As for `CCn1cc(C(C)N2C(=O)c3ccc(-n4cnc(C)c4)c(=O)n3CC2C)c2cc(Cl)c(F)cc21` (single isomer, unassigned) [compound 192], the results for the IC50 against γ-secretase [2] and on γ-secretase [1] were 1.82 µM and 0.01 µM, respectively. Moreover, the response vs control in vivo at 30 mg/kg with Aβ42 came to 39%.
For `Cc1cn(-c2ccc3n(c2=O)C[C@@H](C)N(Cc2cc(Br)cc(C(F)(F)F)c2)C3=O)cn1` [compound 145], in that order: > 10 µM, 0.11 µM and 71%.
On to `Cc1cn(-c2ccc3n(c2=O)C[C@@H](C)N(Cc2ccc(C(F)(F)F)c(C(F)(F)F)c2)C3=O)cn1` [compound 46], for which the IC50 was > 10 µM against γ-secretase [2] and 0.14 µM at γ-secretase [1].
For `CCc1cn(-c2ccc3n(c2=O)CC(C)N(Cc2cc(C(F)(F)F)cc(C(F)(F)F)c2)C3=O)cn1.Cl` (stereo not shown) [compound 7], in that order: > 10 µM and 0.14 µM.
As to `Cc1cn(-c2ccc3n(c2=O)C[C@@H](C)N(Cc2cc(Cl)cc(C(F)(F)F)c2)C3=O)cn1` [compound 63], the IC50 against γ-secretase [2] was > 10 µM; on γ-secretase [1], 0.19 µM.
Regarding `CCC1Cn2c(ccc(-n3cnc(C)c3)c2=O)C(=O)N1Cc1cc(C(F)(F)F)cc(C(F)(F)F)c1.Cl` (stereo not shown) [compound 1], the IC50 on γ-secretase [2] was > 10 µM; against γ-secretase [1], 0.11 µM.
For `Cc1cn(-c2ccc3n(c2=O)C[C@@H](C)N(Cc2cccc(C(C)(C)C)c2)C3=O)cn1` [compound 23], in that order: > 10 µM and 0.14 µM.
For `Cc1cn(-c2ccc3n(c2=O)CCN(Cc2ccc(C)c(N4CCCCC4)c2)C3=O)cn1` [compound 99], in that order: > 10 µM and 0.17 µM.

Usually IC50 stands for the midpoint of a concentration-inhibition curve. A low value points to greater potency.
